Data taken from patent US20120040951A1, “HETEROARYL COMPOUNDS USEFUL AS RAF KINASE INHIBITORS” (priority 2008, published 2012).

System: phospho-ERK in melanoma derived WM-266-4 cells
Experiment: Mechanistic cellular assay for Raf kinase activity (phospho-ERK, Bio-Plex)
Format: cell-based
Conditions: Homo sapiens, treated 1-2 hr at 37° C., serum free medium, read-out: pERK EC50
Excerpt: (2) Mechanistic Cellular Assay for Raf Kinase Activity
The following method was utilized for quantifying the amount of phospho-ERK in melanoma derived WM-266-4 cells (one allele each of wild type BRaf and mutant BRaf (V600D) as an indicator of Raf kinase activity in cells treated with various kinase inhibitors.
(1) Detached adhered WM-266-4 cells from flask using 0.25% Trypsin. Resuspended cells in growth media (90% RPMI 1640, 10% FBS) and determine cell density.
(2) Seeded cells @ 10,000 cells/well in 96-well (flat bottom) tissue culture plates (36,000 cells/cm^2). Added growth media to a final volume of 200 uL/well and incubated overnight at 37° C.
(1) Prepared compound dilutions (1000× in DMSO) as follows. Starting with a stock of 5 mM compound in DMSO, diluted serially 3-fold in DMSO for a total of eight concentrations (5 mM, 1.67 mM, 0.556 mM, 0.185 mM, 0.062 mM, 0.021 mM, 0.007 mM, 0.002 mM).
(2) Prepared compound-containing media by adding 1 mL treatment media (100% RPMI 1640 without FBS) to 1 μL of compound dilution (from step 3).
(3) Removed plates (from step 2) from incubator. Aspirated media and replace with 150 μL compound-containing media. Incubate for 1-2 hr at 37° C.
(4) Removed plates (from step 5) from incubator and treated each as follows: aspirated compound-containing media and replaced with 300 μL ice-cold 1×PBS, aspirated PBS and replaced with 45 μL lysis buffer (Biorad Bio-Plex lysis buffer containing 0.4% v/v lysis buff. Factor 1, 0.2% v/v lysis buff. Factor 2, and PMSF to 2 mM final concentration), and then placed plate on ice until all plates were treated.
(5) After all plates were processed (step 6), placed plates on an orbital shaker and shook at room temperature for at least 15 min.
(6) Finally, removed plates from shaker, and transfered 40 μL/well of lysate from each to new corresponding 96-well V-bottom plates. At this point, samples may be frozen and stored @−80 C.°.
(1) Thaw (if necessary) plates (from step 8) and added 40 μL of Phospho-Protein Assay Buffer to each 40 μL lysate for a 1:1 dilution.
(2) Prepared phospho-ERK1,2 Bioplex beads by diluting 1:50 with Bioplex Wash Buffer (mixing 49 μL Wash Buffer with 1 μL of phospho-ERK1,2 Bioplex beads for each sample to be analyzed). Protected from light by wrapping tube in aluminum foil and kept at room temperature.
(3) Prepared Filter Plate by adding 100 μL/well Bioplex Wash Buffer and removed by vacuum filtration.
(4) Add 50 μL of bead solution (from step 10) to each well of a prepared Filter Plate (from step 11) and vacuum filter. Wash/filter 2× with 100 μL/well Wash Buffer.
(5) Added 50 μL of each lysate to appropriate well of the Filter Plate (from step 12). For this and all subsequent plate incubation steps, placed plate on an inverted plate cover (reduces background), and wrapped in aluminum foil (to protect from light). Shook overnight at room temperature. Included positive (control lysate) and negative (lysis buffer) controls.
(1) Prepared detection antibody (phospho-ERK1,2 Ab) by diluting 1:25 with Detection Antibody Dilution Buffer Buffer (mixing 24 μL Detection Antibody Dilution Buffer with 1 μL of phospho-ERK1,2 Ab for each sample to be analyzed).
(2) Removed plate (from step 13) from shaker and vacuum filter. Washed/filter plate 3× with 100 μL/well Wash Buffer. Added 25 μL of diluted antibody to each well. Incubated on shaker at RT for 30-45 min.
(3) Prepared streptavidin-PE by diluting 1:100 with Wash Buffer (mixing 49.5 μL Wash Buffer with 0.5 μL of 100× streptavidin-PE for each sample to be analyzed). Protected from light.
(4) Removed plate (from step 15) from shaker and vacuum filter. Washed/filter plate 3× with 100 μL/well Wash Buffer. Add 50 μL of diluted streptavidin-PE solution (from step 16) to each sample well. Incubated on shaker for 10-20 min.
(5) Removed plate from shaker and vacuum filter. Wash/filter plate 3× with 100 μL/well Bead Resuspension Buffer. After last wash resuspended beads in 125 μL Bead Resuspension Buffer. […]

Row | Structure (SMILES) | EC50
1 | C[C@@H](NC(=O)c1ccc2c(c1)NC(=O)CO2)c1ncc(C(=O)Nc2cc(C(F)(F)F)c(Cl)cn2)s1 [Example 66] | ≤ 100 nM
2 | C[C@@H](NC(=O)c1ccc2[nH]cnc2c1)c1ncc(C(=O)Nc2cc(C(F)(F)F)c(Cl)cn2)s1 [Example 53] | 100 to 1000 nM
3 | C[C@@H](NC(=O)c1cc2c(cn1)ncn2CCS(C)(=O)=O)c1cnc(Nc2ccc(C(F)(F)F)cc2)cn1 [Example 186] | 100 to 1000 nM
4 | CCn1cnc2cnc(C(=O)NC(C)c3cnc(Nc4ccc(C(F)(F)F)cn4)cn3)cc21 (centres unmarked) [Example 284] | 100 to 1000 nM
5 | CC(NC(=O)c1cc2c(cn1)ncn2C)c1cnc(Nc2ccc(Cl)cc2)s1 (centres unmarked) [Example 249] | 100 to 1000 nM
6 | Cc1ncc(C(=O)N[C@H](C)c2ncc(C(=O)Nc3cc(C(F)(F)F)c(Cl)cn3)s2)n1-c1ccccn1 [Example 161] | 100 to 1000 nM
7 | C[C@@H](NC(=O)c1cnc2n1CCCN2)c1ncc(C(=O)Nc2cc(C(F)(F)F)c(Cl)cn2)s1 [Example 166] | ≤ 100 nM
8 | CC(NC(=O)c1cnn2c1CCCC2)c1cnc(Nc2ccc(C(F)(F)F)cc2)s1 (centres unmarked) [Example 83] | ≤ 100 nM
9 | C[C@@H](NC(=O)c1cnc2n1CCC(=O)N2)c1ncc(C(=O)Nc2cc(C(F)(F)F)c(Cl)cn2)s1 [Example 173] | ≤ 100 nM
10 | C[C@@H](NC(=O)c1cc2c(cn1)ncn2C1CN(S(=O)(=O)CC(F)(F)F)C1)c1cnc(Nc2ccc(C(F)(F)F)cc2)cn1 [Example 344] | 100 to 1000 nM
11 | CC(NC(=O)c1cc2c(cn1)ncn2C)c1cnc(Nc2cccc(Cl)c2)s1 (centres unmarked) [Example 248] | 100 to 1000 nM
12 | CCn1cnc2cnc(C(=O)NC(C)c3cnc(Nc4ccc(C(F)(F)F)cc4)cn3)nc21 (centres unmarked) [Example 192] | 100 to 1000 nM
13 | CCN(CC)c1cnc2cnc(C(=O)NC(C)c3ncc(Nc4ccc(C(F)(F)F)cc4)s3)cn12 (centres unmarked) [Example 304] | 100 to 1000 nM
14 | CC(NC(=O)c1cc2c(cn1)ncn2C1CCCCC1)c1cnc(Nc2ccc(C(F)(F)F)cc2)s1 (centres unmarked) [Example 18] | 100 to 1000 nM
15 | CC(NC(=O)c1cc2c(cn1)ncn2C1CCC1)c1cnc(Nc2ccc(C(F)(F)F)cc2)s1 (centres unmarked) [Example 14] | ≤ 100 nM
16 | CC(C)Cn1cnc2cnc(C(=O)NC(C)c3cnc(Nc4ccc(C(F)(F)F)cc4)cn3)cc21 (centres unmarked) [Example 79] | 100 to 1000 nM
17 | CC(NC(=O)c1cc2c(cn1)ncn2C1CCOCC1)c1cnc(Nc2ccc(C(F)(F)F)cc2)s1 (centres unmarked) [Example 9] | ≤ 100 nM
18 | C[C@@H](NC(=O)c1cnc2n1CCN2C)c1ncc(C(=O)Nc2cc(C(F)(F)F)c(Cl)cn2)s1 [Example 172] | 100 to 1000 nM
19 | Cc1nc(C(F)(F)F)ccc1Nc1ncc(C(C)NC(=O)c2cc3c(cn2)ncn3C)s1 (centres unmarked) [Example 259] | 100 to 1000 nM
20 | C[C@@H](NC(=O)c1cnc2cnccn12)c1ncc(C(=O)Nc2cc(C(F)(F)F)c(Cl)cn2)s1 [Example 312] | ≤ 100 nM
21 | CC(NC(=O)c1cnn2cc(-c3ccncc3)ccc12)c1ncc(C(=O)Nc2cc(C(F)(F)F)c(Cl)cn2)s1 (centres unmarked) [Example 321] | ≤ 100 nM
22 | CNc1ncc(C(=O)N[C@H](C)c2ncc(C(=O)Nc3cc(C(F)(F)F)c(Cl)cn3)s2)n1C [Example 160] | 1000 to 10000 nM
23 | C[C@@H](NC(=O)c1ccc2nc(N)sc2c1)c1ncc(C(=O)Nc2cc(C(F)(F)F)c(Cl)cn2)s1 [Example 59] | ≤ 100 nM
24 | Cc1nc2cnc(C(=O)NC(C)c3cnc(Nc4ccc(C(F)(F)F)cc4)s3)cc2n1C (centres unmarked) [Example 10] | 100 to 1000 nM
25 | CC(NC(=O)c1cc2c(cn1)ncn2C)c1cnc(Nc2cnc(C(C)(C)C)nc2)cn1 (centres unmarked) [Example 256] | 100 to 1000 nM
26 | C[C@@H](NC(=O)c1ccc2c(c1)OCCO2)c1ncc(C(=O)Nc2cc(C(F)(F)F)c(Cl)cn2)s1 [Example 70] | 100 to 1000 nM
27 | CCN1CC(n2cnc3cnc(C(=O)NC(C)c4cnc(Nc5ccc(C(F)(F)F)nc5)s4)cc32)C1 (centres unmarked) [Example 294] | 100 to 1000 nM

Row | Structure (SMILES) | EC50
28 | C[C@@H](NC(=O)c1cnn(-c2ccncc2)c1)c1ncc(C(=O)Nc2cc(C(F)(F)F)c(Cl)cn2)s1 [Example 120] | 100 to 1000 nM
29 | CC(NC(=O)c1cn2c(Br)cnc2cn1)c1cnc(Nc2ccc(C(F)(F)F)cc2)s1 (centres unmarked) [Example 297] | ≤ 100 nM
30 | CCn1c(C(=O)N[C@H](C)c2ncc(C(=O)Nc3cc(C(F)(F)F)c(Cl)cn3)s2)cnc1N [Example 149] | ≤ 100 nM
31 | CCn1c(C(=O)NC(C)c2ncc(C(=O)Nc3cc(C(F)(F)F)c(Cl)cn3)s2)cnc1C (centres unmarked) [Example 164] | 100 to 1000 nM
32 | Cc1ncc(C(=O)N[C@H](C)c2ncc(C(=O)Nc3cc(C(F)(F)F)c(Cl)cn3)s2)n1C(C)C [Example 158] | ≤ 100 nM
33 | CC(NC(=O)c1cc2c(cn1)ncn2C)c1cnc(Nc2cc(CN(C)C)cc(C(F)(F)F)c2)s1 (centres unmarked) [Example 357] | 1000 to 10000 nM
34 | C[C@@H](NC(=O)c1cnc2n1CCN2)c1ncc(C(=O)Nc2cc(C(F)(F)F)c(Cl)cn2)s1 [Example 169] | ≤ 100 nM
35 | CC(NC(=O)c1cc2c(cn1)ncn2C)c1cnc(Nc2cccc(C(C)(C)C#N)c2)s1 (centres unmarked) [Example 252] | 100 to 1000 nM
36 | CC(NC(=O)c1cnn2cc(-c3cccnc3F)ccc12)c1nc(C(=O)Nc2cc(C(F)(F)F)c(Cl)cn2)cs1 (centres unmarked) [Example 324] | 100 to 1000 nM
37 | CC(NC(=O)c1cc2c(cn1)ncn2C(C)(C)C)c1cnc(Nc2ccc(C(F)(F)F)cc2)s1 (centres unmarked) [Example 13] | ≤ 100 nM
38 | CC(NC(=O)c1cc2c(cn1)ncn2CCN)c1cnc(Nc2ccc(C(F)(F)F)cc2)s1 (centres unmarked) [Example 23] | 100 to 1000 nM
39 | CC(NC(=O)c1cc2c(cn1)ncn2C)c1cnc(Nc2cc(C(F)(F)F)ccn2)s1 (centres unmarked) [Example 251] | 1000 to 10000 nM
40 | CC(NC(=O)c1cc2c(cn1)ncn2C(C)C)c1cnc(Nc2ccc(C(F)(F)F)cc2)cn1 (centres unmarked) [Example 80] | 100 to 1000 nM
41 | CC(NC(=O)c1cc2c(cn1)ncn2CCN1CCOCC1)c1cnc(Nc2ccc(C(F)(F)F)cc2)s1 (centres unmarked) [Example 8] | ≤ 100 nM
42 | Cc1nc(-c2cnccn2)sc1C(=O)N[C@H](C)c1ncc(C(=O)Nc2cc(C(F)(F)F)c(Cl)cn2)s1 [Example 100] | 1000 to 10000 nM
43 | CC(NC(=O)c1cnc2n1CCNC2)c1cnc(Nc2ccc(C(F)(F)F)cc2)s1 (centres unmarked) [Example 314] | 100 to 1000 nM
44 | CCN1CC(n2cnc3cnc(C(=O)NC(C)c4cnc(Nc5ccc(Cl)c(C(F)(F)F)c5)cn4)cc32)C1 (centres unmarked) [Example 235] | 100 to 1000 nM
45 | CC(NC(=O)c1ncc2ncn(C)c2n1)c1cnc(Nc2ccc(C(F)(F)F)cc2)cn1 (centres unmarked) [Example 191] | 1000 to 10000 nM
46 | C[C@@H](NC(=O)c1cnn(-c2cccnc2)c1)c1ncc(C(=O)Nc2cc(C(F)(F)F)c(Cl)cn2)s1 [Example 116] | 100 to 1000 nM
47 | CC(NC(=O)c1cc2c(cn1)ncn2CC(N)=O)c1cnc(Nc2ccc(C(F)(F)F)cc2)s1 (centres unmarked) [Example 355] | 1000 to 10000 nM
48 | C[C@@H](NC(=O)c1cnc2[nH]ccc2c1)c1ncc(C(=O)Nc2cc(C(F)(F)F)c(Cl)cn2)s1 [Example 81] | ≤ 100 nM
49 | C[C@@H](NC(=O)c1cc2c(cn1)ncn2[C@@H]1CCN(C(=O)OC(C)(C)C)C1)c1cnc(Nc2ccc(C(F)(F)F)cc2)s1 [Example 22] | 100 to 1000 nM
50 | CC(NC(=O)c1cc2c(cn1)ncn2C)c1cnc(Nc2cccc(C(C)(C)C(F)(F)F)c2)s1 (centres unmarked) [Example 278] | ≤ 100 nM
51 | CC(NC(=O)c1cc2c(cn1)ncn2C)c1ncc(C(=O)Nc2cc(C(F)(F)F)c(Cl)cn2)s1 (centres unmarked) [Example 40] | ≤ 100 nM
52 | CC(NC(=O)c1cc2c(cn1)ncn2C)c1cnc(Nc2ccc(C3(C)CC3)cc2)s1 (centres unmarked) [Example 277] | 100 to 1000 nM
53 | CC(NC(=O)c1cc2c(cn1)ncn2C)c1cnc(Nc2ccc(C3COC3)cc2)cn1 (centres unmarked) [Example 281] | 1000 to 10000 nM
